Laboratory results taken from PubChem BioAssay AID248 (DTP/NCI, 2004).
Several values for one entry are separate records, joined by “and”; a condition that tells them apart may be missing. Equal values may be shown once. Inconclusive results and toxic doses are left out. Rule as the data show it: active = T/C of 150% or more; inactive = T/C below 125%.

System: L1210 leukemia ip in BDF1 mice, survival T/C
Assay: NCI In Vivo Anticancer Drug Screen. Data for tumor model L1210 Leukemia (intraperitoneal) in B6D2F1 (BDF1) mice
Conditions: higher = longer survival
Summary of the method: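 Antitumor effect is assessed in tumor-bearing animals. Survival in the compound arm is compared with a vehicle-dosed control arm and expressed as their quotient.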

Measured: T/C

O=P1(N(CCCl)CCCl)NCCCO1 (configuration not stated)
inactive: endpoint: mean survival time, dose: 0.9 mg/kg/injection, schedule: Q01DX009 (ip), vehicle: saline 99 % of control and 100 % of control | endpoint: mean survival time, dose: 1.0 mg/kg/injection, schedule: Q01DX Z (ip), vehicle: methylcellulose (MC) 93 % of control | endpoint: mean survival time, dose: 1.0 mg/kg/injection, schedule: Q01DX Z (oral), vehicle: saline 93 % of control | endpoint: mean survival time, dose: 1.0 mg/kg/injection, schedule: Q07DX Z (ip), vehicle: saline 103 % of control | endpoint: mean survival time, dose: 1.8 mg/kg/injection, schedule: Q01DX009 (ip), vehicle: saline 94 % of control | endpoint: mean survival time, dose: 2.5 mg/kg/injection, schedule: Q07DX Z (ip), vehicle: saline 97 % of control | endpoint: mean survival time, dose: 3.2 mg/kg/injection, schedule: Q01DX001 (ip), vehicle: saline 95 % of control | endpoint: mean survival time, dose: 3.5 mg/kg/injection, schedule: Q01DX009 (ip), vehicle: saline 100 % of control and 104 % of control | endpoint: mean survival time, dose: 3.5 mg/kg/injection, schedule: Q03HX032 (ip), vehicle: saline 110 % of control | endpoint: mean survival time, dose: 3.5 mg/kg/injection, schedule: Q## X032 (ip), vehicle: saline 110 % of control | endpoint: mean survival time, dose: 4.3 mg/kg/injection, schedule: Q01DX Z (ip), vehicle: saline 98 % of control | endpoint: mean survival time, dose: 5.0 mg/kg/injection, schedule: Q01DX Z (ip), vehicle: methylcellulose (MC) 105 % of control | endpoint: mean survival time, dose: 5.0 mg/kg/injection, schedule: Q07DX Z (ip), vehicle: saline 97 % of control | endpoint: mean survival time, dose: 5.36 mg/kg/injection, schedule: Q03HX032 (ip), vehicle: saline 102 % of control | endpoint: mean survival time, dose: 5.36 mg/kg/injection, schedule: Q## X032 (ip), vehicle: saline 102 % of control | endpoint: mean survival time, dose: 5.6 mg/kg/injection, schedule: Q13HX018 (ip), vehicle: saline 98 % of control | endpoint: mean survival time, dose: 6.0 mg/kg/injection, schedule: Q01DX Z (oral), vehicle: saline 108 % of control | endpoint: mean survival time, dose: 6.0 mg/kg/injection, schedule: Q03DX Z (ip), vehicle: saline 109 % of control | endpoint: mean survival time, dose: 6.25 mg/kg/injection, schedule: Q01DX009 (ip), vehicle: saline 104 % of control and 107 % of control | endpoint: mean survival time, dose: 6.25 mg/kg/injection, schedule: Q01DX Z (ip), vehicle: saline 102 % of control | endpoint: mean survival time, dose: 6.3 mg/kg/injection, schedule: Q01DX001 (ip), vehicle: saline 94 % of control | endpoint: mean survival time, dose: 7.13 mg/kg/injection, schedule: Q01DX Z (ip), vehicle: carboxymethylcellulose (CMC) 109 % of control | endpoint: mean survival time, dose: 7.5 mg/kg/injection, schedule: Q01DX009 (ip), vehicle: saline 110 % of control | endpoint: mean survival time, dose: 7.5 mg/kg/injection, schedule: Q01DX Z (ip), vehicle: saline 110 % of control | endpoint: mean survival time, dose: 7.5 mg/kg/injection, schedule: Q04DX002 (ip), vehicle: saline 94 % of control and 111 % of control | endpoint: mean survival time, dose: 8.5 mg/kg/injection, schedule: Q01DX Z (ip), vehicle: saline 110 % of control | endpoint: mean survival time, dose: 9.4 mg/kg/injection, schedule: Q01DX001 (ip), vehicle: water 103 % of control | endpoint: mean survival time, dose: 9.9 mg/kg/injection, schedule: Q01DX010 (ip), vehicle: saline 104 % of control | endpoint: mean survival time, dose: 10.0 mg/kg/injection, schedule: Q01DX Z (ip), vehicle: methylcellulose (MC) 104 % of control | endpoint: mean survival time, dose: 10.0 mg/kg/injection, schedule: Q07DX Z (ip), vehicle: saline 102 % of control | endpoint: mean survival time, dose: 11.25 mg/kg/injection, schedule: Q01DX001 (ip), vehicle: saline 98 % of control and 105 % of control | endpoint: mean survival time, dose: 11.3 mg/kg/injection, schedule: Q01DX Z (ip), vehicle: saline 113 % of control | endpoint: mean survival time, dose: 11.3 mg/kg/injection, schedule: Q## X Z (ip), vehicle: saline 110 % of control | endpoint: mean survival time, dose: 12.0 mg/kg/injection, schedule: Q01DX001 (ip), vehicle: saline 94 % of control and 111 % of control | endpoint: mean survival time, dose: 12.0 mg/kg/injection, schedule: Q01DX Z (im), vehicle: saline 97 % of control | endpoint: mean survival time, dose: 12.0 mg/kg/injection, schedule: Q01DX Z (oral), vehicle: saline 109 % of control | endpoint: mean survival time, dose: 12.0 mg/kg/injection, schedule: Q02DX010 (ip), vehicle: saline 111 % of control | endpoint: mean survival time, dose: 12.0 mg/kg/injection, schedule: Q03DX Z (ip), vehicle: saline 107 % of control | endpoint: mean survival time, dose: 12.5 mg/kg/injection, schedule: Q01DX001 (ip), vehicle: saline 96 % of control | endpoint: mean survival time, dose: 12.5 mg/kg/injection, schedule: Q01DX009 (ip), vehicle: saline 110 % of control | endpoint: mean survival time, dose: 12.5 mg/kg/injection, schedule: Q01DX Z (ip), vehicle: carboxymethylcellulose (CMC) 101 % of control | endpoint: mean survival time, dose: 12.6 mg/kg/injection, schedule: Q01DX009 (ip), vehicle: saline 110 % of control | endpoint: mean survival time, dose: 12.6 mg/kg/injection, schedule: Q01DX Z (ip), vehicle: saline 110 % of control | endpoint: mean survival time, dose: 15.0 mg/kg/injection, schedule: Q01DX Z (ip), vehicle: methylcellulose (MC) 100 % of control | endpoint: mean survival time, dose: 15.0 mg/kg/injection, schedule: Q04DX002 (ip), vehicle: saline 103 % of control | endpoint: mean survival time, dose: 15.0 mg/kg/injection, schedule: Q07DX Z (ip), vehicle: saline 107 % of control | endpoint: mean survival time, dose: 18.75 mg/kg/injection, schedule: Q01DX001 (ip), vehicle: water 103 % of control | endpoint: mean survival time, dose: 18.76 mg/kg/injection, schedule: Q02DX010 (ip), vehicle: saline 112 % of control | endpoint: mean survival time, dose: 19.0 mg/kg/injection, schedule: Q02DX010 (ip), vehicle: saline 110 % of control | endpoint: mean survival time, dose: 20.0 mg/kg/injection, schedule: Q01DX Z (ip), vehicle: methylcellulose (MC) 98 % of control | endpoint: mean survival time, dose: 22.5 mg/kg/injection, schedule: Q01DX001 (ip), vehicle: saline 106 % of control and 109 % of control | endpoint: mean survival time, dose: 22.5 mg/kg/injection, schedule: Q## X Z (ip), vehicle: saline 105 % of control | endpoint: mean survival time, dose: 25.0 mg/kg/injection, schedule: Q01DX006 (iv), vehicle: saline 103 % of control | endpoint: mean survival time, dose: 25.0 mg/kg/injection, schedule: Q01DX Z (im), vehicle: saline 113 % of control | endpoint: mean survival time, dose: 25.0 mg/kg/injection, schedule: Q04DX003 (ip), vehicle: saline 104 % of control | endpoint: mean survival time, dose: 28.5 mg/kg/injection, schedule: Q01DX Z (ip), vehicle: carboxymethylcellulose (CMC) 114 % of control | endpoint: mean survival time, dose: 37.0 mg/kg/injection, schedule: Q01DX001 (ip), vehicle: water 114 % of control | endpoint: mean survival time, dose: 37.5 mg/kg/injection, schedule: Q01DX001 (ip), vehicle: saline with Tween-80 112 % of control | endpoint: mean survival time, dose: 37.5 mg/kg/injection, schedule: Q01DX001 (ip), vehicle: water 114 % of control | endpoint: mean survival time, dose: 45.0 mg/kg/injection, schedule: Q13HX018 (ip), vehicle: saline 107 % of control | endpoint: mean survival time, dose: 45.0 mg/kg/injection, schedule: Q## X Z (ip), vehicle: saline 105 % of control | endpoint: mean survival time, dose: 50.0 mg/kg/injection, schedule: Q01DX Z (ip), vehicle: methylcellulose (MC) 112 % of control | endpoint: mean survival time, dose: 67.5 mg/kg/injection, schedule: Q## X006 (ip), vehicle: saline 100 % of control | endpoint: mean survival time, dose: 86.0 mg/kg/injection, schedule: Q01DX001 (ip), vehicle: saline 112 % of control | endpoint: mean survival time, dose: 90.0 mg/kg/injection, schedule: Q01DX009 (ip), vehicle: saline 107 % of control | endpoint: mean survival time, dose: 90.0 mg/kg/injection, schedule: Q01DX Z (ip), vehicle: saline 98 % of control | endpoint: mean survival time, dose: 90.0 mg/kg/injection, schedule: Q02DX010 (ip), vehicle: carboxymethylcellulose (CMC) 105 % of control | endpoint: mean survival time, dose: 97.0 mg/kg/injection, schedule: Q02DX010 (ip), vehicle: carboxymethylcellulose (CMC) 107 % of control | endpoint: mean survival time, dose: 97.0 mg/kg/injection, schedule: Q02DX010 (ip), vehicle: other 98 % of control | endpoint: mean survival time, dose: 100.0 mg/kg/injection, schedule: Q01DX Z (ip), vehicle: methylcellulose (MC) 108 % of control | endpoint: mean survival time, dose: 100.0 mg/kg/injection, schedule: Q01DX Z (oral), vehicle: saline 107 % of control | endpoint: mean survival time, dose: 135.0 mg/kg/injection, schedule: Q02DX010 (ip), vehicle: saline 111 % of control | endpoint: mean survival time, dose: 180.0 mg/kg/injection, schedule: Q01DX009 (ip), vehicle: saline 96 % of control | endpoint: mean survival time, dose: 180.0 mg/kg/injection, schedule: Q01DX010 (ip), vehicle: saline 102 % of control | endpoint: mean survival time, dose: 200.0 mg/kg/injection, schedule: Q01DX009 (ip), vehicle: saline 93 % of control | endpoint: mean survival time, dose: 200.0 mg/kg/injection, schedule: Q01DX Z (ip), vehicle: saline 100 % of control | endpoint: mean survival time, dose: 320.0 mg/kg/injection, schedule: Q04DX003 (ip), vehicle: saline 111 % of control | endpoint: mean survival time, dose: 360.0 mg/kg/injection, schedule: Q01DX001 (ip), vehicle: saline 113 % of control | endpoint: mean survival time, dose: 400.0 mg/kg/injection, schedule: Q04DX002 (ip), vehicle: saline 100 % of control | endpoint: mean survival time, dose: 468.0 mg/kg/injection, schedule: Q04DX002 (ip), vehicle: saline 111 % of control | endpoint: mean survival time, dose: 900.0 mg/kg/injection, schedule: Q01DX001 (ip), vehicle: saline 102 % of control | endpoint: median survival time, dose: 5.0 mg/kg/injection, schedule: Q01DX009 (ip), vehicle: saline 101 % of control and 110 % of control | endpoint: median survival time, dose: 10.0 mg/kg/injection, schedule: Q01DX001 (ip), vehicle: saline 99 % of control and 100 % of control | endpoint: median survival time, dose: 20.0 mg/kg/injection, schedule: Q01DX001 (ip), vehicle: saline 106 % of control | endpoint: median survival time, dose: 50.0 mg/kg/injection, schedule: Q08DX003 (ip), vehicle: saline 95 % of control and 97 % of control | endpoint: median survival time, dose: 90.0 mg/kg/injection, schedule: Q01DX009 (ip), vehicle: saline 105 % of control and 112 % of control | endpoint: median survival time, dose: 180.0 mg/kg/injection, schedule: Q01DX009 (ip), vehicle: saline 93 % of control
